Measured values reported in patent US8883203B2, “Solid oral dosage form containing an enhancer” (Merrion Research III Limited, priority 2006, dated 2014).

Legend:
[1] = Closed loop rat model, intraduodenal TRH with enhancer, serum TRH; assay type: in vivo, Male Wistar rats; conditions: 500 μg or 1000 μg TRH with 35 mg enhancer, interduodenal bolus
Method: Male Wistar rats (weight range 250 g-350 g) were anaesthetized with ketamine hydrochloride/acepromazine. […] All intraduodenal dose volumes (for samples and control) were 1 ml/kg. The proximal end of the segment was ligated and the loop was sprayed with isotonic saline (37° C.) to provide moisture and then replaced in the abdominal cavity avoiding distension. The incision was closed with surgical clips. A group of animals were administered TRH in PBS (100 μg in 0.2 ml) by subcutaneous injection as a reference.

anti-factor Xa activity [2] = assay: Closed-loop rat segment, intraileal USP heparin with enhancer, anti-factor Xa response; conditions: USP heparin 1000 IU
Method: The procedure carried out in Example 1(a) above was repeated using USP heparin in place of TRH and dosing intraileally rather than intraduodenally. A mid-line incision was made in the abdomen and the distal end of the ileum located (about 10 cm proximal to the ileo-caecal junction). 7-9 cm of tissue was isolated and the distal end ligated, taking care to avoid damage to surrounding blood vessels. Heparin absorption as indicated by […] (APTT) response was measured by placing a drop of whole blood (freshly sampled from the tail artery) on the test cartridge of Biotrack 512 coagulation monitor. APTT measurements were taken at various time points.
Citrated blood samples were centrifuged at 3000 rpm for 15 mins. to obtain plasma for anti-factor Xa analysis. […] The control in each case is a solution of the same heparin concentration containing no enhancer.

Caco-2 monolayers = assay: TEER of Caco-2 monolayers with MCFA sodium salts; assay type: cell-based; conditions: sodium salts with 3H-TRH, over 2 hours, concentrations of Table 1
Method: Cell Culture: Caco-2 cells were cultured in Dulbecco's Modified Eagles Medium (DMEM) 4.5 g/L glucose supplemented with 1% (v/v) non-essential amino acids; 10% fetal calf serum and 1% penicillin/streptomycin. […] The cells were grown and expanded in standard tissue culture flasks and were passaged once they attained 100% confluence. The Caco-2 cells were then seeded on polycarbonate filter inserts (Costar; 12 mm diameter, 0.4 μm pore size) at a density of 5×10^5 cells/cm^2 and incubated in six well culture plates with a medium change every second day. Confluent monolayers between day 20 and day 30 seeding on filters and at passages 30-40 were used throughout these studies.
The transport experiments were performed in Hank's Balanced Salt Solution (HBSS) containing 25 mM N[2-hydroxyethyl]-piperazine-N′-[2-ethanesulfonic acid] (HEPES) buffer, pH 7.4 at 37° C. Due to variations in solubilities, various concentrations of the different MCFA sodium salts and various apical buffers were used as shown in Table 1. In all cases the basolateral chamber contained regular HBSS+HEPES.
After removing the cell culture medium, the monolayers were placed in wells containing prewarmed HBSS (37° C.); 1 ml apically and 2 ml basolaterally. Monolayers were incubated at 37° C. for 30 mins. Then at time zero, apical HBSS was replaced with the relevant apical test solution containing the radiolabelled compounds with and without the enhancer compound. […] The plates were placed on an orbital shaker in an incubator (37° C.). Transport across the monolayers was followed by basolateral sampling (1 ml) at 30 min. intervals up to 120 mins. At each 30 min. interval each insert was transferred to a new well containing 2 ml fresh prewarmed HBSS. Apical stock radioactivity was determined by taking 10 μl samples at t=0 and t=120 mins. […] Mean values for ^3H-TRH concentrations were calculated for the apical and basolateral solutions at each time point.

APTT = assay: Closed-loop rat segment, intraileal USP heparin with enhancer, APTT response; assay type: in vivo; conditions: USP heparin 1000 IU, enhancer 10 and 35 mg
Description: APTT measurements were taken at various time points.

[3] = cited from earlier work
anti-factor Xa activity [4] = assay: Intraduodenal LMWH with enhancers in rats (open loop), anti-factor Xa; assay type: in vivo, Male Wistar rats; conditions: 1000 IU parnaparin sodium intraduodenally
anti-factor Xa activity [5] = assay: Site of administration of LMWH with sodium caprate in dogs, anti-factor Xa; assay type: in vivo, beagle dogs; conditions: 45,000 IU LMWH and 0.55 g sodium caprate, oral, intrajejunal, intracolonic
Description: Four beagle dogs (10-15 Kg) were surgically fitted with catheters to the jejunum and colon respectively. […] 3,200 IU Fluxum™ SC was included in the study as a subcutaneous reference.

For `CCCCCCCCCC(=O)[O-].[Na+]` [NaC10, sodium caprate], the “serum levels of TRH over the control TRH solution” value [1] was “significantly increases”, the “anti-factor Xa activity relative to control heparin solution” value (anti-factor Xa activity [2]; enhancer 10 mg) was “significant increase in anti-factor Xa activity” and the “anti-factor Xa activity relative to control heparin solution” value (anti-factor Xa activity [2]; enhancer 35 mg) was “significant increase in anti-factor Xa activity”. The “effect on TEER (Ωcm^2) compared to the control” value (“effect … compared to the control” for short) (Caco-2 monolayers) was “minimal reduction in TEER” and the “heparin absorption by APTT response compared to control heparin solution” value (APTT) was “significant increase in absorption”.
For `NCCCC(O)(P(=O)(O)O)P(=O)(O)O` [alendronate, Alendronate monosodium trihydrate], the “further share of the dose absorbed excreted in the urine” value ([3]; over the next 64 hours) is listed as 5% and the “share of the dose absorbed excreted in the urine” value ([3]; within 8 hours, oral conventional forms) is listed as 40%.
For parnaparin sodium [LMWH], the “systemic delivery of LMWH in the absence of enhancer” value (anti-factor Xa activity [4]) was “relatively poor” and the “intestinal absorption of LMWH versus absorption from the stomach” value (anti-factor Xa activity [5]) was “considerably higher”.
In the case of `CCCCCCCCCCCCCCCCCC(=O)[O-].[Na+]` [Batch C18], the “effect … compared to the control” value (Caco-2 monolayers) is reported as “minimal reduction in TEER”.
In the case of `CCCCCCCCCCCCCC(=O)[O-].[Na+]` [Batch C14], the “effect … compared to the control” value (Caco-2 monolayers) is reported as “minimal reduction in TEER”.
For `CCCCCCCCCCCC(=O)[O-].[Na+]` [Batch C12, sodium laurate], the “effect … compared to the control” value (Caco-2 monolayers) was “some cell damage (reduction in TEER)”.
In the case of `CCCCCCCC(=O)[O-].[Na+]` [NaC8, sodium caprylate], the “serum levels of TRH over the control TRH solution” value [1] is reported as “significantly increases”.
